Structures can show the parent of a compound that is named as a salt.
Key:
[1] = test system: NQO1; assay: NQO1 enzyme activation assay as a readout of NRF2 activation in THP-1 cells; format: cell-based; conditions: Homo sapiens; for Emax: THP-1, percentage activation at top concentration, normalised to DMF (100%) and vehicle controls; for EC50: differentiated THP-1 cells, LPS, 48 hr
Procedure: NQO1 Enzyme Activation Assay as a Readout of NRF2 Activation in THP-1 Cellular Background
NAD(P)H dehydrogenase [quinone] […] Induction of this gene is concomitant with the inhibition of proinflammatory cytokine transcription and suppression of the inflammatory response (Kobayashi E. H. et al., 2016). The NQO1 enzyme activation activities of compounds of formula (IW-1) were determined using a cellular based NQO1 activation assay (Abcam). The NQO1 activation assay was run in differentiated THP-1 cells (a human monocyte-like cell line) as described below. All reagents described are from Sigma-Aldrich unless specified otherwise. Compounds were prepared as 10 mM DMSO stocks.
THP-1 cells were expanded as a suspension up to 80% confluence in appropriate growth medium. Cells were harvested, suspended, treated with phorbol 12-myristate 13-acetate (PMA) and plated according to the cell density required for each plate format over a 72 hr period (37° C./5% CO2).
Following 72 hrs of THP-1 cell incubation, cellular medium was removed and replaced with fresh media. Working concentrations of compounds were prepared and pre-incubated for 30 minutes (37° C./5% CO2). Compound treatment was then applied to the PMA treated THP-1 cell plate followed by LPS treatment. A ‘low’ (DMSO vehicle only) control and ‘high’ (designated concentration of dimethyl fumarate) was applied to each plate at the point of compound treatment. Cells were subsequently incubated for a 48 hr period (37° C./5% C02) after which all NQO1 assay reagents were prepared according to the manufacturer's instructions. NQO1 extraction buffer was applied to PBS washed THP-1 cells and incubated on ice for 15 minutes to prepare THP-1 lysates for the NQO1 activity assay. THP-1 lysates were diluted 1:5 with PBS and treated with a 1:1 volume of kit prepared NQO1 Reaction Buffer. Absorbance was subsequently measured kinetically on an appropriate reader over a 6 minute period.
For activation determination, the fold change in response per well was determined by first calculating the average NQO1 activation data for the vehicle control and then dividing the individual well response by the averaged NQO1 response for the vehicle control as shown below: Fold change=(Sample value)/MeanMin Where ‘Min’=vehicle control only
The relative 50% activation concentration (EC50) was determined from the resulting fold change response curve. The maximum efficacy (Emax) was reported as the percentage activation calculated at the top concentration of compound used in the titration applied. If a full curve was unattainable preventing a correct curve fit, the Emax value was extrapolated using existing curve data. All percentage activation data were normalised to the DMF and vehicle controls, meaning the Emax represents the percentage […] achieved by a compound at a particular concentration relative to that achieved by DMF (set as the ‘High’ control and therefore representative of 100% activation).

[2] = test system: IL-1β cytokine output from isolated primary human monocytes; assay: Primary human monocyte AlphaLISA IL-1β cytokine assay; format: cell-based; conditions: CD14+ primary human monocytes, LPS 24 hr then Nigericin 1 hour; for IC50: Monocyte
Procedure: Measuring Inhibitory Effects on IL-1β and IL-6 Cytokine Output from Isolated Primary Human Monocytes
The cytokine inhibition profiles of compounds of formula (IW-1) were determined in a CD14^+ isolated primary human monocyte cell assay. All assays were performed in RPMI-1640 growth medium (Gibco), supplemented with heat-inactivated fetal bovine serum (FBS) and 1% penicillin-streptomycin unless specified otherwise. The IL-1β and IL-6 cytokine inhibition assays were each run in a background of isolated primary human monocyte cells as described below. All reagents described were from Sigma-Aldrich unless specified otherwise. Compounds were prepared as 100 mM DMSO stocks.
Primary peripheral blood mononuclear cells (PBMCs) were isolated from human whole blood. Following PBMC isolation, a CD14^+ monocyte isolation step was conducted whereby CD14^+ magnetic beads (Miltenyi Biotec) were incubated for 15 minutes with the PBMC suspension that was previously treated with ice cold T-cell isolation buffer (PBS, 0.5% BSA, 2 mM EDTA). Following bead incubation, the treated cell suspension was passed through a magnetic separation column designed to positively select for magnetically labelled cells. The isolated CD14^+ monocytes were subsequently plated at the appropriate cell density for the assay, prior to compound treatment on the day of plating. Working concentrations of compounds were prepared separately in RPMI-1640 only growth medium and pre-incubated with the cells for 30 minutes (37° C./5% CO2). Following the 30 minute compound pre-incubation, primary monocytes were treated with an appropriate concentration of LPS and subsequently incubated for a 24 hr period (37° C./5% CO2). An appropriate final concentration of Nigericin was then dispensed into the primary monocyte plates and incubated for 1 hour (37° C./5% CO2) before monocyte supernatants were harvested and collected in separate polypropylene 96-well holding plates prior to commencing the AlphaLISA cytokine assay.
Reagents from each of the IL-1β and IL-6 commercial kits (Perkin Elmer) were prepared and run according to the manufacturer's instructions. Subsequently, fluorescence signal was measured in a microplate reader (EnVision® Multilabel Reader, Perkin Elmer).
Percentage inhibition was calculated per cytokine by normalising the sample data to the high and low controls used within each plate (+/−LPS respectively). Percentage inhibition was then plotted against compound concentration and the 50% inhibitory concentration (IC50) was determined from the resultant concentration-response curve.

[3] = test system: IL-6 cytokine output from THP-1s; assay: THP-1 AlphaLISA IL-6 cytokine assay; format: cell-based, human; conditions: Homo sapiens; PMA-differentiated THP-1 cells, LPS 24 hr then Nigericin 1 hour
Procedure, shortened: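 AlphaLISA read-out of cytokine released into supernatants of differentiated THP-1 cells. Cells were PMA-treated for 72 h, exposed to compound for 30 min, stimulated with LPS for 24 h, then given nigericin for 1 h before harvest. IC50 values come from normalised concentration-response curves.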

Row | SMILES | Emax [1] [%] | EC50 [1] [µM] | IC50 [2] [µM] | IC50 [3] [µM] | IL-1β (IC50) [2]
1 | C=C(CC(=O)OCCCCCCCC)C(=O)OCCC#N [Example 1, 1-(2-cyanoethyl) 4-octyl 2-methylenesuccinate] | 167 | 6.9 | 8.9 | 6 | –
2 | C=C(CC(=O)OCCCCCCCC)C(=O)OCCS(C)(=O)=O [Example 2, 1-(2-(methylsulfonyl)ethyl) 4-octyl 2-methylenesuccinate] | 213 | 4.6 | 3.6 | 2.9 | lower IC5s than dimethyl fumarate
3 | C=C(CC(=O)OCCCCCCCC)C(=O)OCCC(F)(F)F [Example 3, 4-octyl 1-(3,3,3-trifluoropropyl) 2-methylenesuccinate] | 91 | 14.7 | 3.9 | 56.2 | lower IC5s than dimethyl fumarate
4 | C=C(CC(=O)OCCCCCCCC)C(=O)OC1COC1 [Example 4, 4-octyl 1-(oxetan-3-yl) 2-methylenesuccinate] | 171 | 13.6 | – | 3.6 | –
5 | C=C(CC(=O)OCCCCCCCC)C(=O)OCCN1C(=O)CCC1=O [Example 9, 1-(2-(2,5-dioxopyrrolidin-1-yl)ethyl) 4-octyl 2-methylenesuccinate] | 98 | 9.8 | 3.3 | 2.2 | lower IC5s than dimethyl fumarate
6 | C=C(CC(=O)OCCCCCCCC)C(=O)OCC(=O)O [Example 49, 2-((2-methylene-4-(octyloxy)-4-oxobutanoyl)oxy)acetic acid] | – | – | – | 5.5 | –
7 | C=C(CC(=O)OCCCCCCCC)C(=O)OCCC(=O)O [Example 80, 3-((2-methylene-4-(octyloxy)-4-oxobutanoyl)oxy)propanoic Acid] | – | – | – | 5.3 | –
8 | C=C(CC(=O)OC1CCCCCCC1)C(=O)OCCC(=O)O [Example 82, 3-((4-(cyclooctyloxy)-2-methylene-4-oxobutanoyl)oxy)propanoic acid] | – | – | – | 18.9 | –
9 | C=C(CC(=O)O[C@@H](C)CCCCCC)C(=O)OCCC(=O)O [Example 84, (S)-3-((2-methylene-4-(octan-2-yloxy)-4-oxobutanoyl)oxy)propanoic acid] | – | – | – | 22 | –
10 | C=C(CC(=O)OCCCOc1ccccc1)C(=O)OCCC(=O)O [Example 86, 3-((2-methylene-4-oxo-4-(3-phenoxypropoxy)butanoyl)oxy)propanoic acid] | – | – | – | 15.7 | –
11 | C=C(CC(=O)OC1CCCCC1)C(=O)OCCC(=O)O [Example 87, 3-((4-(cyclohexyloxy)-2-methylene-4-oxobutanoyl)oxy)propanoic acid] | – | – | – | 100 | –
12 | C=C(CC(=O)O[C@H](C)CCCCCC)C(=O)OCCC(=O)O [Example 88, (R)-3-((2-methylene-4-(octan-2-yloxy)-4-oxobutanoyl)oxy)propanoic acid] | – | – | 17.3 | 20.4 | –
13 | C=C(CC(=O)O[C@@H](C)CCCCCC)C(=O)OCC(=O)O [Example 89, (S)-2-((2-methylene-4-(octan-2-yloxy)-4-oxobutanoyl)oxy)acetic acid] | – | – | – | 12.6 | –
14 | C=C(CC(=O)OC1CCCCCCC1)C(=O)OCC(=O)O [Example 90, 2-((4-(cyclooctyloxy)-2-methylene-4-oxobutanoyl)oxy)acetic acid] | – | – | 81.3 | 9.8 | –
15 | C=C(CC(=O)OC1CCCCC1)C(=O)OCC(=O)O [Example 91, 2-((4-(cyclohexyloxy)-2-methylene-4-oxobutanoyl)oxy)acetic acid] | – | – | – | 33.8 | –
16 | C=C(CC(=O)OC1CC2(CCC2)C1)C(=O)OCC(=O)O [Example 96, 2-((2-methylene-4-oxo-4-(spiro[3.3]heptan-2-yloxy)butanoyl)oxy)acetic acid] | – | – | – | 47.1 | –
17 | C=C(CC(=O)O[C@H](C)CCCCCC)C(=O)OCC(=O)O [Example 112, (R)-2-((2-methylene-4-(octan-2-yloxy)-4-oxobutanoyl)oxy)acetic acid] | – | – | 13.7 | – | –
18 | COC(=O)/C=C/C(=O)OC [dimethyl fumarate, reference compound] | 126 | 12.9 | 8.5 | 9.3 | –
19 | C=C(CC(=O)OC)C(=O)OC [dimethyl itaconate, reference compound] | 144 | 74.1 | – | 100 | –
